Where a SMILES comes first, the peptide text is derived from it. [ ]: non-standard residue; d: D form. The star is where a group is joined. ξ: configuration not given here. FITC = O=C1OC2(c3ccc(O)cc3Oc3cc(O)ccc32)c2ccc(NC(=S)*)cc21; Phe(4-NO2) = N[C@@H](Cc1ccc([N+](=O)[O-])cc1)C(=O)O; ξAla(4-thiazolyl) = NC(Cc1cscn1)C(=O)O; pS = N[C@@H](COP(=O)(O)O)C(=O)O; β3hS = N[C@@H](CO)CC(=O)O; Nva = CCC[C@H](N)C(=O)O; ξβ3hS = NC(CO)CC(=O)O; βAla = NCCC(=O)O
Tests used:
14-3-3γ/ChREBP = molecular target: T1, 14-3-3γ/ChREBP (Homo sapiens, UniProt P61981+Q9NP71); experiment: 2D FA titration of 14-3-3/ChREBP and cooperativity analysis with thermodynamic equilibrium model; format: binding; details: 14-3-3γ/ChREBP/2d ternary complex; 2D FA titration (20 nM FITC-2d, 0.01–10 μM ChREBP) fitted to thermodynamic equilibrium model; n = 2
T1 construct: made in house; host or cells: E. coli NiCo21 (DE3) for 14-3-3 gamma; ChREBP is a synthetic peptide
T1 sequence (P61981 1-247): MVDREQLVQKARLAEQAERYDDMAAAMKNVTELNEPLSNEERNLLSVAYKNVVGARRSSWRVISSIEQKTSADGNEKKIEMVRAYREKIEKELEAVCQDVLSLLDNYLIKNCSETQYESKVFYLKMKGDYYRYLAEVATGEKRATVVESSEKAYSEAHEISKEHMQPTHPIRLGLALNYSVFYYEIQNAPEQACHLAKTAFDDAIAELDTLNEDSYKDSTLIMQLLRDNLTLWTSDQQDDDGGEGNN
T1 sequence (Q9NP71 118-142 partner limits assumed): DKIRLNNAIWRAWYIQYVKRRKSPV
Method: (§1) a four-parameter logistic model (4PL). Each measurement was performed in two independent […]
(§2) Fluorescence anisotropy (FA) - 2D-14-3-3/ChREBP titrations: 14-3-3γ was titrated in a 2-fold dilution series (starting at 300 µM 14-3-3γ) to 20 nM of fluorescein-labeled peptide 2d in FA buffer (10 mM HEPES pH 7.4, 150 mM NaCl, 0.1% (v/v) Tween20, 0.1% (w/v) BSA) in presence of 2-fold dilution series of unlabeled ChREBP peptide (0.01-10 µM). Dilution series were made in a polystyrene (non-binding) low-volume Corning Black Round Bottom 384-well plates (Corning 4514 or 4511). Measurements were performed directly after plate preparation, using a Tecan Infinite F500 plate reader at room temperature (lex: 485 ± 20 nm; lem: 535 ± 25 nm; mirror: Dichroic 510; flashes: 20; integration time: 50 ms; settle time:
(§3) 0 ms; gain: optimal; and Z-position: calculated from well). Wells containing only FITC-peptide were used to set as G-factor at 35 mP. All data were analyzed using GraphPad Prism (7.00) for Windows and fitted using a four-parameter logistic model (4PL). […]
(§4) with R = 14-3-3, P = non-natural peptide (labelled), and C = ChREBP. The framework determined based on this system description the equilibrium equations needed to determine KDII and α. […] From this the model determined the KDII and α (with 95% confidence interval) and the error-landscape of the determine parameters. […]

[1] = test system: 14-3-3γ with partner peptides (ChREBP, ERα, SOS1, B-Raf, ERRγ, USP8, PIN1, p65); experiment: FA selectivity study: 14-3-3 partner peptides titrated to preformed 14-3-3γ/FITC-2d complex; format: binding, human; details: partner peptides titrated (from 100 μM) to 2 μM 14-3-3γ and 20 nM FITC-2d; n = 2
Method: as §1, §2, §3, §4

14-3-3 = details: hits of a 10^8-membered synthetic non-canonical phosphopeptide library; read-out: affinity for 14-3-3; cited from earlier work
Excerpt: We selected peptide 14-3-3.12, herein termed peptide 1, from the top hits for functional mapping. […] Further, the peptide completely occupies the 14-3-3 binding groove, thus allowing to explore both sides flanking 14-3-3's central phospho-accommodating pocket.

Row | SMILES | cooperativity factor α (14-3-3γ/ChREBP) | selectivity of ternary complex formation over a panel of 14-3-3 partner peptides [1] | Kd (14-3-3) [nM]
1 | C[C@H](NC(=O)[C@H](CCCCN)NC(=O)[C@H](Cc1ccc([N+](=O)[O-])cc1)NC(=O)CCNC(=O)C[C@H](CO)NC(=O)[C@H](Cc1ccc([N+](=O)[O-])cc1)NC(=O)[C@@H](N)COP(=O)(O)O)C(=O)N[C@@H](CCCCNC(=S)Nc1ccc2c(c1)C(=O)OC21c2ccc(O)cc2Oc2cc(O)ccc21)C(N)=O [2d] (H-[pS][Phe(4-NO2)][β3hS][βAla][Phe(4-NO2)]KAK(FITC)-NH2) | 36 | highly selective ternary complex formation | –
2 | CCC[C@H](NC(=O)[C@H](N)CCCCN)C(=O)N[C@@H](Cc1ccc([N+](=O)[O-])cc1)C(=O)NC(Cc1cscn1)C(=O)N[C@@H](COP(=O)(O)O)C(=O)N[C@@H](Cc1ccc([N+](=O)[O-])cc1)C(=O)NC(CO)CC(=O)NCCC(=O)N[C@@H](Cc1ccc([N+](=O)[O-])cc1)C(=O)N[C@@H](CCCCN)C(N)=O (stereo partly drawn) [compound 1] (H-[dK][Nva][Phe(4-NO2)][ξAla(4-thiazolyl)][pS][Phe(4-NO2)][ξβ3hS][βAla][Phe(4-NO2)]K-NH2) | – | – | 19
